This is an account of results in US4071559A, “Pharmaceutically active 2-omega-aminoalkoxydiphenyls” (Mitsubishi Chemical Industries Limited, priority 1975, dated 1978).

Data set [1] deals with spontaneous motor activity. Put plainly: Spontaneous motor activity by ANIMEX apparatus (CNS depressant activity). The data set is classed as in vivo. Conditions: Mus musculus, ip, mice, i.p., read-out: Spontaneous Motor Activity Depression ED50.
The subject of data set [2] is tremorine induced tremor. Put plainly: Tremorine induced tremor in mice (central anticholinergic effect). The data set is classed as in vivo. Conditions: for ED50: Mus musculus, ip, tremorine induced tremor, read-out: Antitremorine Effect ED50.
Experimental: (§1) The compounds were administered intraperitoneally and the activities of the compounds were compared with those of Amitriptyline.
Data set [3] deals with reserpine induced hypothermia. Put plainly: Antagonism of reserpine induced hypothermia in mice (antireserpine / antidepressant activity). To be noted: i.p.; for Antireserpine activity, Relative Potency: reserpine 5 mg/kg i.p., Amitriptyline = 1. The data set is classed as in vivo.
Experimental: as §1
Data set [4] concerns neurological deficit. Nature of the data set: Traction test (neurological deficit; muscle relaxant action; CNS depressant activity). The data set is classed as in vivo. Conditions: mice; for ED50: Mus musculus, ip, traction test.
Data set [5] can be described thus: in vivo. Conditions: mouse, ip.
The test system of data set [6] is electroshock induced tonic extensor. Put plainly: Antagonism of electroshock induced tonic extensor (anticonvulsant activity). The data set is classed as in vivo. Conditions: Mus musculus, ip; mice; dose which prevents 50% of response.
For data set [7], the system named is mice. To be noted: i.p., compared with Amitriptyline.

The term ED50 denotes the dose that gives a 50% effect, or the effect in half of the subjects. The LD50 is the dose at which mortality reaches 50%. Low values mean greater toxicity, high ones lower toxicity.

Where a name gives a salt, the structure may show the parent alone.

Regarding `NCCCCOc1ccccc1-c1ccccc1` [2-(4-aminobutoxy)diphenyl hydrochloride], the ED50 in data set [1] came to 40 mg/kg; in data set [2], 60 mg/kg; in data set [4], 50 mg/kg; in data set [6], 14 mg/kg. Moreover, in data set [3], the “Antireserpine activity, Relative Potency” value stood at 0.59. The median lethal dose (LD50) in data set [5] came to 137 mg/kg.

For `CN(C)CCCCOc1ccccc1-c1ccccc1` [2-(4-dimethylaminobutoxy)diphenyl hydrochloride], in data set [3], the “Antireserpine activity, Relative Potency” value was 0.45. Moreover, the LD50 in data set [5] turned out to be 100 mg/kg.

On to `CNCCCCOc1ccccc1-c1ccccc1` [2-(4-methylaminobutoxy)diphenyl hydrochloride], for which the ED50 in data set [1] turned out to be 30 mg/kg; in data set [2], 20 mg/kg; in data set [4] it was 40 mg/kg; in data set [6], 14 mg/kg. Moreover, the “toxicity (in words)” value in data set [7] is “low toxicity”. Besides, in data set [2] (i.p., compared with Amitriptyline), the “anticholinergic action (in words)” value is “weak”. In data set [3] (compared with Amitriptyline), the “antireserpine activity (in words)” value is reported as “comparable to that of Amitriptyline”. Also, the “Antireserpine activity, Relative Potency” value in data set [3] amounted to 0.99. In addition, the “CNS depressant action (in words)” value in data set [4] (i.p., traction test and spontaneous motor activity) is recorded as “weak”. In data set [5], this compound gave an LD50 of 78 mg/kg.
